Assay results: US5618713A, “Mutants of human antithrombin III” (Behringwerke Aktiengesellschaft, priority 1989, dated 1997)

Key:
Format in all cases: biochemical
[1] = target: elastase from human polymorphonuclear granulocytes (PMN elastase); assay: PMN elastase inhibition assay (chromogenic substrate MeO-Suc-Ala-Ala-Pro-Val-pNA)
Description: The liberation of the paranitroaniline from the substrate was measured in a spectrophotometer as the increase in absorption at 405 nm within 15 min. This absorption was defined as 100% activity of the PMN elastase enzyme. The inhibitors were preincubated in concentrations increasing up to a maximum of 100 μg/ml with the enzyme for one hour. The enzyme reaction was then started with the substrate. The assay was carried out in 0.1 mol/1 HEPES, pH 7.5, +0.1 mol/1 sodium chloride. The substrate concentration was 0.13 mmol/1.

bovine thrombin = assay: progressive inhibitory activity (Hensen et al. 1963), rate of thrombin inactivation, clotting time; conditions: purified protein, without heparin
Description: As taught in Hensen et al., progressive inhibiting activity is measured by an antithrombin III assay according to the principle that the material to be tested is incubated with thrombin. The rate of thrombin inactivation is measured and is used as a standard of antithrombin III activity.
In the procedure, a bovine thrombin solution of 50 N.I.H. units/ml, stored at-25° C., after being thawed is kept as melting ice; 0.2 ml of this thrombin solution with 0.6 ml veronal buffer, in a siliconized tube, is placed in a waterbath at 37° C. After a minimum of 2 minutes preheating, 0.2 ml of the material to tested (heat-defibrinated plasma or serum or a plasma fraction) is added to the mixture, and a chronometer is started. Exactly 1, 3 and 5 minutes later, 0.2 ml of this incubation mixture is added to 0.3 ml diluted bovine BaSO4 -plasma which has been pre-heated in the waterbath for 2-20 minutes and kept in non-siliconized tubes. The clotting times obtained are registered. The determination is made in duplicate.
If the antithrombin III activity in the sample tested is found to be low (less than 50% of the normal), then the determination should be repeated with the double quantity of the material to be tested (0.4 ml and 0.4 ml veronal buffer).
In the calculation, three times are obtained per determination. […]

alpha-thrombin (human) = assay: dependence of thrombin inactivation on the heparin concentration
Description: The two mutants were examined for their relative ability to inactivate thrombin as a function of the heparin concentration in the assay and compared with AT III plasma, AT III-WT and the mutant AT III-Lys49 (Tab. 5).
The assay was carried out under the following conditions: 0.02 U (antigen)/ml AT III (AT III plasma, AT III-WT or AT III-Mut) was preincubated with 0.3 IU/ml alpha-thrombin (human), 2 KIU/ml aprotinin (Behringwerke) and heparin (Hoffmann-LaRoche) in concentrations of 0-25 IU/ml in a volume of I ml at 37° C. for 5minutes. After addition of 100 μl of substrate reagent (2 mM HD-CHA-But-Arg-pNA), the change in extinction at 405 nm (37° C.) was followed kinetically. The maximum inhibition of alpha-thrombin at heparin saturation was set equal to 100%.
Tab. 5 indicates the heparin concentration at half-maximum thrombin inhibition (c 1/2) for AT III plasma, AT III-WT and various AT III mutants.

thrombin = assay: heparin cofactor activity (Schrader et al. 1986), Berichrom test kit, excess heparin and thrombin; conditions: purified protein, excess of heparin and thrombin
Description: As taught in Schrader et al., for the determination of the heparin cofactor activity of the AT III mutants with the test kit Berichrom® (Behringwerke AG, Marburg) a solution with the particular AT III mutant was incubated with an excess of heparin and thrombin. The produced AT III mutant-heparin-complex inhibits a part of the thrombin. The non-inactivated part of the thrombin cleaves the chromogenic substrate which was added to the solution and the amount of produced p-nitroaniline was measured at 405 nm photometrically.

Row | Substance | IC50, inhibition of PMN elastase ([1]; 1 h preincubation with enzyme, substrate 0.13 mmol/l, 0.1 mol/l HEPES pH 7.5 + 0.1 mol/l NaCl, max. 100 μg/ml) [µg/mL] | type of inhibition of PMN elastase ([1]; KI determination) | PI, progressive inhibitory activity (bovine thrombin) [U/mg] | C 1/2 Heparin, heparin concentration at half-maximum relative thrombin inhibition (alpha-thrombin (human); 0.02 U/ml AT III, 0.3 IU/ml alpha-thrombin, heparin 0-25 IU/ml, 5 min 37° C.) [mIU/ml] | inhibition of thrombin at low heparin concentrations (alpha-thrombin (human); compared in words) | HC, heparin cofactor activity (thrombin) [U/mg]
1 | alpha1 PI: reference inhibitor alpha1 protease inhibitor (alpha1 antitrypsin) | 3.7 | non-competitive inhibition |  |  |  | 
2 | ATIII-Gln135: AT III mutant with Asn→Gln exchange in position 135, lacking a carbohydrate side-chain |  |  | 3.9 | 22 | better than that of AT III plasma and AT III-WT | 4.5
